Experimental findings from patent publication US20180314077A1, “DRUG SUSTAINED-RELEASING MEDICAL CONTACT LENS” (NOF CORPORATION, priority 2015, published 2018) are described below.

Where a name gives a salt, the structure may show the parent alone.

Details in one data set: not given
The source says: The solubility of the drug (Q) to be used in the drug sustained-releasing medical contact lens of the present invention in water may be calculated by using the following equation.
Turning to `CCCCCCCC(=O)CC[C@@H]1[C@@H](C/C=C\CCCC(=O)OC(C)C)[C@@H](O)C[C@H]1O` [isopropyl unoprostone], the Solubility in water amounted to 0.01%.

In turn, `O=C(O)c1cc(O)c2c3nc4ccccc4oc-3cc(=O)c2n1` [pirenoxine] returned a Solubility in water of 0.01%.

`CCCC(=O)N1CCCN(c2nc(N)c3cc(OC)c(OC)cc3n2)CC1` [bunazosin hydrochloride] displayed a Solubility in water of 0.55%.

`CCn1cc(C(=O)O)c(=O)c2cc(F)c(N3CCNC(C)C3)c(F)c21` (centres unmarked) [lomefloxacin hydrochloride] showed a Solubility in water of 0.55%.

Compound sodium azulene sulfonate hydrate had a Solubility in water of 2.15%.

`COc1ccc(/C=C/C(=O)Nc2ccccc2C(=O)O)cc1OC` [tranilast] had a Solubility in water of 0.01%.

In the case of `C[C@@H]1C[C@H]2[C@@H]3CCC4=CC(=O)C=C[C@]4(C)[C@@]3(F)[C@@H](O)C[C@]2(C)[C@@]1(O)C(=O)COC(=O)c1cccc(S(=O)(=O)[O-])c1.[Na+]` [dexamethasone sodium sulfobenzoate], the Solubility in water is 0.55%.

Regarding `CN1CCC(=C2c3ccccc3CC(=O)c3sccc32)CC1` [ketotifen fumarate], the Solubility in water is reported as 0.55%.

For the compound `CC(=O)[C@@]1(O)CC[C@H]2[C@@H]3C[C@H](C)C4=CC(=O)C=C[C@]4(C)[C@@]3(F)[C@@H](O)C[C@@]21C` [fluorometholone], the Solubility in water worked out at 0.003%.

With `CC(=O)OCC(=O)[C@@]1(O)CC[C@H]2[C@@H]3CCC4=CC(=O)CC[C@]4(C)[C@H]3[C@@H](O)C[C@@]21C` [hydrocortisone acetate], the Solubility in water is 0.0014%.

`C[C@@H]1C[C@H]2[C@@H]3CCC4=CC(=O)C=C[C@]4(C)[C@@]3(F)[C@@H](O)C[C@]2(C)[C@@]1(O)C(=O)CO` [dexamethasone] registered a Solubility in water of 0.01%.

As to `CO/N=C(\C(=O)N[C@@H]1C(=O)N2C(C(=O)O)=C(CSc3nnnn3C)CS[C@H]12)c1csc(N)n1` [cefmenoxime], the Solubility in water is reported as 0.055%.

Regarding `COc1c(N2CCNC(C)C2)c(F)cc2c(=O)c(C(=O)O)cn(C3CC3)c12` (centres unmarked) [gatifloxacin], the Solubility in water is 0.55%.

`CCn1cc(C(=O)O)c(=O)c2cc(F)c(N3CCNCC3)cc21` [norfloxacin] displayed a Solubility in water of 0.01%.

The compound `CN(C)CC/C=C1/c2ccccc2COc2ccc(CC(=O)O)cc21` [olopatadine hydrochloride] yielded a Solubility in water of 2.15%.

On to `O=C(NC(Cc1cc(=O)[nH]c2ccccc12)C(=O)O)c1ccc(Cl)cc1` (centres unmarked) [rebamipide], for which the Solubility in water was 0.01%.

Take `NC(=O)Cc1cccc(C(=O)c2ccccc2)c1N` [nepafenac]: the Solubility in water is recorded as 0.01%.

On to `O=C(O)Cc1ccccc1Nc1c(Cl)cccc1Cl` [diclofenac sodium], for which the Solubility in water was 0.24%.

With `O=C(O)C(=O)Nc1cccc(-c2nnn[nH]2)c1` [acitazanolast hydrate], the Solubility in water was 0.55%.

As to `CC(C(=O)O)c1ccc2c(c1)Cc1cccnc1O2` (centres unmarked) [pranoprofen], the Solubility in water is recorded as 0.01%.

Consider `CCNC(=O)CCC/C=C\C[C@@H]1[C@@H](/C=C/[C@@H](O)CCc2ccccc2)[C@H](O)C[C@@H]1O` [bimatoprost], for which the Solubility in water was 0.55%.

For the compound `CCN[C@H]1CN(CCCOC)S(=O)(=O)c2sc(S(N)(=O)=O)cc21` [brinzolamide], the Solubility in water came out at 0.055%.

`Nc1nc2c(ncn2COCCO)c(=O)[nH]1` [acyclovir] registered a Solubility in water of 0.16%.

`COc1ccc2c(c1)c(CC(=O)O)c(C)n2C(=O)c1ccc(Cl)cc1` [indomethacin] showed a Solubility in water of 0.00009%.

In turn, `CC(C)OC(=O)CCC/C=C\C[C@@H]1[C@@H](CC[C@@H](O)CCc2ccccc2)[C@H](O)C[C@@H]1O` [latanoprost] returned a Solubility in water of 0.01%.

Take `CC(C)OC(=O)CCC/C=C\C[C@@H]1[C@@H](/C=C/C(F)(F)COc2ccccc2)[C@H](O)C[C@@H]1O` [tafluprost]: the Solubility in water was 0.01%.

`CC(C)OC(=O)CCC/C=C\C[C@@H]1[C@@H](/C=C/[C@@H](O)COc2cccc(C(F)(F)F)c2)[C@H](O)C[C@@H]1O` [travoprost] showed a Solubility in water of 0.01%.

On to sodium hyaluronate, for which the Solubility in water was 2.15%.

`C[C@@H]1CN([C@H]2CC[C@](C#N)(c3ccc(F)cc3)CC2)CC[C@]1(C(=O)O)c1ccccc1` [levocabastine hydrochloride] came in with a Solubility in water of 0.01%.

The compound cyanocobalamin registered a Solubility in water of 2.15%.

As to `NC1CCN(c2nc3c(cc2F)c(=O)c(C(=O)O)cn3-c2ccc(F)cc2F)C1` (centres unmarked) [tosufloxacin tosilate hydrate], the Solubility in water is listed as 0.01%.

Staying with this data set, now noted: water at 25° C.; 0.01 g of drug / mass of water needed for dissolving x100.
For the compound `CC(C)c1ccc2oc3nc(N)c(C(=O)O)cc3c(=O)c2c1` [amlexanox], the Solubility in water came to 0.01%.
